Source: US20100113371A9, “Derivatives Of Pentose Monosaccharides As Anti-Inflammatory Compounds” (RANBAXY LABORATORIES LIMITED INC., priority 2004, published 2010)
pIC50: −log10 of the molar value.

The molecules below were run on LTB4 release from neutrophils (assay: A23187 induced LTB4 release). Conditions: Neutrophil; neutrophils from healthy human donors, test drug 1 hour at 37° C., 0.3 μg/ml A23187 10 min, LTB4 ELISA; range over the group of compounds; read-out: IC50, percent inhibition of LTB4 release.
Type: cell-based
Experimental: The compounds of the present invention are tested in one or more of the assays described herein. Standard assays are used to evaluate activity of compounds in present invention on inflammatory cells. Attenuation of agonist-induced release of lipid mediator of neutrophil chemotaxis, leukotriene B4 (LTB4), is used to evaluate inhibitory effect on neutrophils.
Venous blood was collected from healthy human donors using heparin as an anti-coagulant. Neutrophils were isolated from freshly drawn blood after dextran sedimentation and ficoll separation (Eur J. Biochem. 169, 175, 1987). 180 μl of the of neutrophil suspension (0.2×10^6 cells/ml) was taken and added 19 μL of Hank's Buffer salt solution along with 1 μL of the test drug (200 times concentrated) in a 24 well plate and incubated at 37° C. for 1 hour. 3 minutes before the end of test compound incubation, 0.25 mM Ca^++/Mg^++ were added. Then, 0.3 μg/ml A23187 (Sigma Chem, USA) was added and incubated for further 10 min at 37° C. The reaction was stopped by adding 80 μL of cold methanol and centrifuged to remove cell debris (J Pharmacol Exp Ther. 297:267, 2001). The samples were analysed for LTB4 release using LTB4 ELISA kits (Assay Design Inc., USA). The amount of LTB4 released was quantified and percent inhibition of LTB4 release was calculated with respect to the difference between the A23187 stimulated and negative control cells, to compute IC50 values.
`CCCCCCCOCC12OC(C)C(C)(OC(=O)NS(=O)(=O)c3ccc(F)cc3)C1OC(C)(C)O2` [Compound 118, (4ξ)-1-O-Heptyl-2,3-O-isopropylidene-4-C-methyl-4-O-[{[(4-fluorophenyl)sulphonyl]amino}-carbonyl]-6-deoxy-α-L-erythro-hex-2-ulofuranoside] was tested, and the pIC50 was at most 5.89.
For `CCCCCCCCCCCCOCC12OC(CNC(=O)Cc3ccc(Cl)c(Cl)c3)C(O)C1OC(C)(C)O2` [Compound 94, 1-O-Dodecyl-2,3-O-isopropylidene-6-deoxy-6-{[(3,4-dichlorophenyl)acetyl]amino}-α-L-sorbofuranoside], the pIC50 was at most 5.89.
Molecule `CCCCCCCCCCCCOCC12OC(CNC(=O)Cc3ccc(OC(F)(F)F)cc3)C(O)C1OC(C)(C)O2` [Compound 106, 1-O-Dodecyl-2,3-O-isopropylidene-6-deoxy-6-{[(4-trifluoromethoxyphenyl)acetyl]amino}-α-L-sorbofuranoside] has a pIC50 of at most 5.89.
With `CCCCCCCOCC12OC(C)C(C)(OC(=O)NS(=O)(=O)c3ccc(Cl)cc3)C1OC(C)(C)O2` [Compound 116, (4ξ)-1-O-Heptyl-2,3-O-isopropylidene-4-C-methyl-4-O-[{[(4-chlorophenyl)sulphonyl]amino}-carbonyl]-6-deoxy-α-L-erythro-hex-2-ulofuranoside] the pIC50 was at most 5.89.
`CCCCCCCCCCCCOCC12OC(CNC(=O)Cc3ccc(F)cc3)C(O)C1OC(C)(C)O2` [Compound 69, 1-O-Dodecyl-2,3-O-isopropylidene-6-deoxy-6-{[(4-fluorophenyl)acetyl}amino]-α-L-sorbofuranoside] was tested, and the pIC50 was at most 5.89.
Molecule `CCCCCCCOCC12OC(C)C(C)(OC(=O)NS(=O)(=O)c3ccccc3)C1OC(C)(C)O2` [Compound 117, (4ξ)-1-O-Heptyl-2,3-O-isopropylidene-4-C-methyl-4-O-[{[phenylsulphonyl]amino}carbonyl]-6-deoxy-α-L-erythro-hex-2-ulofuranoside] has a pIC50 of at most 5.89.
With `CCCCCCCCCCCCOCC12OC(CNC(=O)c3ccncc3)C(O)C1OC(C)(C)O2` [Compound 78, 1-O-Dodecyl-2,3-O-isopropylidene-6-deoxy-6-{[(pyridin-4-yl)-carbonyl]-amino}-α-L-sorbofuranoside] the pIC50 was at most 5.89.
